In patent US20260151414A1, “COMPOSITIONS AND THERAPEUTIC METHODS FOR TREATING CHRONIC SEQUALAE FOLLOWING VIRAL INFECTIONS” (priority 2023, published 2026):

How the values were obtained:
[1] = tested on: Covid-19; conditions: cited from earlier work
[2] = target: ACE2 receptor (Homo sapiens, UniProt Q9BYF1); conditions: active site of ACE2 receptor; cited from earlier work
[3] = tested on: PASC (Long Covid); experiment: Clinical example: inventor's self-treatment of Long Covid (PASC) symptoms; type: in vivo, human; conditions: for relief of constant headache: person, symptoms returning from mid-December 2020 after Covid, self-medication
[4] = tested on: Covid-19; conditions: cited from earlier work; remark: listed apart in the source

ACE2 receptor, sequence (Q9BYF1 18-805): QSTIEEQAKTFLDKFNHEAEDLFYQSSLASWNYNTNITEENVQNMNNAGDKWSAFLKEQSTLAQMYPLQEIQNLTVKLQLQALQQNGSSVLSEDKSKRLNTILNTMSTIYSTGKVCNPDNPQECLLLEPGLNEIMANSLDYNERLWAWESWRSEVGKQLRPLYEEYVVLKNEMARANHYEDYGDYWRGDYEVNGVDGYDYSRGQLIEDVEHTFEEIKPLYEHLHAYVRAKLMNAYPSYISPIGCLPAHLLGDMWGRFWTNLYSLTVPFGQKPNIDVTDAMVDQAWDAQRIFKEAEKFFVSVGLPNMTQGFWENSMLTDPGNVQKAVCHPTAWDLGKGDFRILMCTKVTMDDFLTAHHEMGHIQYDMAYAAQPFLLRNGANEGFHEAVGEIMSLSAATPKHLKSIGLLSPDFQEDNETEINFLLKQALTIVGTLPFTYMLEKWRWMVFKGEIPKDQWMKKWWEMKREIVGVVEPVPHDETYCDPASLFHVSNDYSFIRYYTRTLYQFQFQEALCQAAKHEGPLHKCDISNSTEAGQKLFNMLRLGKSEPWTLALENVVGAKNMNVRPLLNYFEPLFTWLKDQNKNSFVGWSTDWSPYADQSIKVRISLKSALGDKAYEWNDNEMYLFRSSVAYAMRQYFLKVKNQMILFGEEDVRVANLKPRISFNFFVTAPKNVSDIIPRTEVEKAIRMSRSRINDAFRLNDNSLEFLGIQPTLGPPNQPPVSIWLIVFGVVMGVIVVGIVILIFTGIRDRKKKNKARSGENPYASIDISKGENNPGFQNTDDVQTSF

For `O=C(O)c1ccccc1` [Benzioc Acid], the “antiviral properties for Covid-19” value [1] is listed as “strong antiviral properties”.

In the case of `O=C(O)C=Cc1ccccc1` [Cinnamic Acid], the “blocking of Covid-19 via ACE2 receptor” value [2] is listed as “block Covid-19 via the active site of ACE2 receptor”.

In the case of `O=c1c(O)c(-c2ccc(O)c(O)c2)oc2cc(O)cc(O)c12` [Quercetin], the energy and headaches ([3]; Black Seed Oil and Quercetin (with Zinc) used together, within a few days of using them) is reported as “an increase in energy and I was having fewer headaches”.

For `C=C1CC[C@@H]2[C@](C)(CO)[C@H](O)CC[C@@]2(C)[C@@H]1C/C=C1/C(=O)OC[C@H]1O` [andrographolide], the “inhibitory effect against Covid-19” value [4] is given as “potent inhibitory effect”.

With `CC(=O)Oc1ccccc1C(=O)O` [aspirin] the “relief of constant headache” value [3] was “would not go away”.

With `CC(C)Cc1ccc(C(C)C(=O)O)cc1` (stereo not shown) [ibuprofen] the “relief of constant headache” value [3] was “would not go away”.

For `COc1ccc2cc([C@H](C)C(=O)O)ccc2c1` [naproxen], the “relief of constant headache” value [3] was “would not go away”.
